These molecules were tested against T1, Sirt6 (Homo sapiens, UniProt Q8N6T7) (assay: Measurement of Sirt6 Activity (CycLex Sirt6 Deacetylase Fluorometric Assay Kit)). Details: compound at 10 μM; fluorescence relative to the group without compound treatment (positive control group).
T1 construct: purchased CycLex CY-1156V2
Assay type: biochemical
Procedure, shortened: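 Recombinant Sirt6 with fluoro-labelled acetyl-lysine peptide, NAD and lysylendopeptidase developer, compound added from 10× stock in PBS; 1 h at room temperature. Fluorescence read at ex 490/em 530 nm; activation expressed as fluorescence ratio relative to enzyme without compound.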

T1 sequence (Q8N6T7 whole entry): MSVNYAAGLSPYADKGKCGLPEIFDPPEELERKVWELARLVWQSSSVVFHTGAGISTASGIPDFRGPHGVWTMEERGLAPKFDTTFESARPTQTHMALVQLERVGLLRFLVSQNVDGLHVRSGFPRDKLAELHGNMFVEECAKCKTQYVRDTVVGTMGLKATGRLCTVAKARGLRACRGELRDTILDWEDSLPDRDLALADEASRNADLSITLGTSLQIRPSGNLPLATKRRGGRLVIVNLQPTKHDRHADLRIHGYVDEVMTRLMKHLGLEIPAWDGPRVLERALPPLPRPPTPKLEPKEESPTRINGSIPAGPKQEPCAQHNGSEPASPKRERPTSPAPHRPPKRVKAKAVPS

Compound | Sirt6 Activity (% activity, 10 μM)
CC(C)/[N+]([O-])=C/c1cccc(-c2nn(-c3ccc(F)c(Cl)c3)c(=O)c3ccccc23)c1 [Example 33, (Z)-1-(3-(3-(3-Chloro-4-fluorophenyl)-4-oxo-3,4-dihydrophthalazin-1-yl)phenyl)-N-isopropyl-methanimine Oxide] | 183 % activity
CCS(=O)(=O)Nc1cccc(-c2nn(CCc3ccccc3)c(=O)c3ccccc23)c1 [Example 62, N-(3-(4-Oxo-3-phenethyl-3,4-dihydrophthalazin-1-yl)phenyl)ethanesulfonamide] | 111 % activity
CC(C)(C(=O)NCCO)c1cccc(-c2nn(-c3ccc(F)cc3F)c(=O)c3ccccc23)c1 [Example 186, 2-(3-(3-(2,4-Difluorophenyl)-4-oxo-3,4-dihydrophthalazin-1-yl)phenyl)-N-(2-hydroxyethyl)-2-methyl Propanamide] | 305.80 % activity
C/[N+]([O-])=C/c1cccc(-c2nn(-c3ccccc3)c(=O)c3ccccc23)c1 [Example 13, (Z)—N-Methyl-1-(3-(4-oxo-3-phenyl-3,4-dihydrophthalazin-1-yl)phenyl)methanimine Oxide] | 181 % activity
CCNS(=O)(=O)c1cccc(-c2nn(-c3ccc(F)cc3)c(=O)c3ccccc23)c1 [Example 87, N-Ethyl-3-(3-(4-fluorophenyl)-4-oxo-3,4-dihydrophthalazin-1-yl)benzenesulfonamide] | 226 % activity
CC(C)(C(=O)O)c1cccc(-c2nn(-c3ccccc3F)c(=O)c3ccccc23)c1 [Example 171, 2-(3-(3-(2-Fluorophenyl)-4-oxo-3,4-dihydrophthalazin-1-yl)phenyl)-2-methylpropanoic Acid] | 134.7 % activity
CS(=O)(=O)c1cccc(-c2nn(-c3ccc(F)cc3F)c(=O)c3ccc(F)cc23)c1 [Example 119, 2-(2,4-Difluorophenyl)-6-fluoro-4-(3-(methylsulfonyl)phenyl)phthalazin-1(2H)-one] | 166 % activity
CCS(=O)(=O)Nc1cccc(-c2nn(Cc3ccc(F)cc3)c(=O)c3ccccc23)c1 [Example 63, N-(3-(3-(4-Fluorobenzyl)-4-oxo-3,4-dihydrophthalazin-1-yl)phenyl)ethanesulfonamide] | 103 % activity
CS(=O)(=O)Nc1cccc(-c2nn(-c3ccccc3)c(=O)c3ccccc23)c1 [Example 6, N-(3-(4-Oxo-3-phenyl-3,4-dihydrophthalazin-1-yl)phenyl)methanesulfonamide] | 102 % activity
CNS(=O)(=O)c1cccc(-c2nn(-c3ccc(F)cc3F)c(=O)c3ccccc23)c1 [Example 91, 3-(3-(2,4-Difluorophenyl)-4-oxo-3,4-dihydrophthalazin-1-yl)-N-methylbenzene Sulfonamide] | 272 % activity
CS(=O)(=O)Nc1cccc(-c2nn(-c3ccc(F)cc3)c(=O)c3ccccc23)c1 [Example 10, N-(3-(3-(4-Fluorophenyl)-4-oxo-3,4-dihydrophthalazin-1-yl)phenyl)methanesulfonamide] | 198 % activity
Cl.N[C@@H]1CCCCN(c2nn(C3CCCCC3)c(=O)c3ccccc23)C1 [Example 159, (R)-4-(3-Aminoazepan-1-yl)-2-cyclohexyl phthalazin-1(2H)-one-hydrochloride] | 398.8 % activity
CCS(=O)(=O)Nc1cccc(-c2nn(-c3cccc(F)c3)c(=O)c3ccccc23)c1 [Example 30, N-(3-(3-(3-Fluorophenyl)-4-oxo-3,4-dihydrophthalazin-1-yl)phenyl)ethanesulfonamide] | 117 % activity
CS(=O)(=O)c1cccc(-c2nn(-c3ccccc3F)c(=O)c3ccccc23)c1 [Example 97, 2-(2-Fluorophenyl)-4-(3-(methylsulfonyl)phenyl)phthalazin-1(2H)-one] | 286 % activity
C/[N+]([O-])=C/c1ccc(F)c(-c2nn(-c3ccc(F)cc3)c(=O)c3ccccc23)c1 [Example 55, (Z)-1-(4-Fluoro-3-(3-(4-fluorophenyl)-4-oxo-3,4-dihydrophthalazin-1-yl)phenyl)-N-methylmethanimine Oxide] | 151 % activity
COc1ccc(-n2nc(-c3cccc(/C=[N+](\[O-])C(C)C)c3)c3ccccc3c2=O)cc1 [Example 32, (Z)—N-Isopropyl-1-(3-(3-(4-methoxyphenyl)-4-oxo-3,4-dihydrophthalazin-1-yl)phenyl) Methanimine Oxide] | 124 % activity
CC(C)/[N+]([O-])=C/c1cccc(-c2nn(-c3cccc(F)c3)c(=O)c3ccccc23)c1 [Example 28, (Z)-1-(3-(3-(3-Fluorophenyl)-4-oxo-3,4-dihydrophthalazin-1-yl)phenyl)-N-isopropylmethanimine Oxide] | 154 % activity
CC(C)S(=O)(=O)N(C)c1cccc(-c2nn(-c3ccc(F)cc3)c(=O)c3ccccc23)c1 [Example 73, N-(3-(3-(4-Fluorophenyl)-4-oxo-3,4-dihydrophthalazin-1-yl)phenyl)-N-methylpropan-2-sulfonamide] | 124 % activity
O=c1c2ccccc2c(-c2cccc(NS(=O)(=O)C(F)(F)F)c2)nn1-c1ccc(F)cc1 [Example 77, 1,1,1-Trifluoro-N-(3-(3-(4-fluorophenyl)-4-oxo-3,4-dihydrophthalazin-1-yl)phenyl)methanesulfonamide] | 194 % activity
O=c1c2ccccc2c(-c2ccc(F)c(/C=[N+](\[O-])Cc3ccccc3)c2)nn1-c1ccc(F)cc1 [Example 54, (Z)—N-Benzyl-1-(2-fluoro-5-(3-(4-fluorophenyl)-4-oxo-3,4-dihydrophthalazin-1-yl)phenyl) Methanimine Oxide] | 161 % activity
CCNS(=O)(=O)c1cccc(-c2nn(-c3c(F)cccc3F)c(=O)c3ccccc23)c1 [Example 108, 3-(3-(2,6-Difluorophenyl)-4-oxo-3,4-dihydrophthalazin-1-yl)-N-ethylbenzenesulfonamide] | 209 % activity
CCS(=O)(=O)N[C@@H]1CCCCN(c2nn(-c3ccc(F)cc3F)c(=O)c3ccccc23)C1 [Example 187, (R)—N-(1-(3-(2,4-Difluorophenyl)-4-oxo-3,4-dihydrophthalazin-1-yl)azepan-3-yl)ethanesulfonamide] | 303.80 % activity
CC(C)(C(=O)O)c1cccc(-c2nn(-c3ccc(F)cc3)c(=O)c3ccccc23)c1 [Example 152, 2-(3-(3-(4-Fluorophenyl)-4-oxo-3,4-dihydrophthalazin-1-yl)phenyl)-2-methylpropanoic Acid] | 195.5 % activity

Same assay, conditions: compound at 10 μM; fluorescence relative to the group without compound treatment (positive control group); 10 µM

Compound | Sirt6 Activity (% activity, 10 μM)
O=C(O)C1(C2CCCN(c3nn(-c4ccc(F)cc4F)c(=O)c4ccccc34)C2)CC1 (stereo not drawn) [Example 213-2, 1-(1-(3-(2,4-Difluorophenyl)-4-oxo-3,4-dihydrophthalazin-1-yl)piperidin-3-yl)cyclopropan-1-carboxylic Acid] | 102.60 % activity

— patent publication US20220235011A1, “PHTHALAZINONE COMPOUNDS AND USE THEREOF” (ST PHARM CO., LTD., priority 2019, published 2022)
